Assay results from patent US9352015B2, “Antimicrobial peptides” (priority 2009, dated 2016).
In brackets after ≈: the same amount, converted by molar mass. Several values for one entry are separate records, joined by “and”; a condition that tells them apart may be missing. Equal entries are not always repeated. Where two headings read alike, the source gives them in different places.

Key:
Acinetobacter baumannii = type: cell-based
Protocol: (§1) Minimal inhibitory concentrations (MICs) are determined using a standard microtiter dilution method, with 3 sets of determinations, in LB (Luria-Bertani) no-salt medium (10 g of tryptone and 5 g of yeast extract per liter). In some cases, Mueller Hinton (MH) medium or Brain Heart Infusion (BHI) medium is used.
(§2) Briefly, cells were grown overnight at 37° C. in LB and diluted in the same medium. Serial dilutions of the peptides are added to the microtiter plates in a volume of 100 μl followed by 10 μl of bacteria to give a final inoculum of 5×10^5 colony-forming units/ml. Plates are incubated at 37° C. for 24 hours and MICs determined as the lowest peptide concentration that inhibited growth. Alternatively, minimal inhibitory concentrations are determined using a standard microtiter dilution method in a Mueller-Hinton (MH) medium. Briefly, cells are grown overnight at 37° C. in MH broth and diluted in the same medium. In some cases, serial dilutions of the peptides are added to the microtiter plates in a volume of 100 μl followed by 10 μl of bacteria to give a final inoculum of 1×10^5 colony-forming units/ml. Plates are incubated at 37° C. for 24 hours and MICs are determined as the lowest peptide concentration that inhibited growth.
The biological activities of these six peptide analogs was determined against 11 clinical isolated of Acinetobacter baumannii (Table 9). Please note that the activities are reported in micromolar rather than microgram/ml. This allows a direct comparison on a molar basis with the effectiveness of molecules of different molecular weights whether peptides disclosed herein or antibiotics which in general are smaller in molecular mass. […] These are the highest antimicrobial activities observed in studies of antimicrobial peptides derived by modifying the peptide sequence of SEQ ID NO:24 (D1). D22 has the best hemolytic activity of the six analogs (D17-D22) and a therapeutic index of […] compared to […] for D1 (Table 9). D22 has no apparent advantage over D1 as determined in these experiments.

[1] = RP-HPLC retention as measure of overall peptide hydrophobicity; type: physicochemical; conditions: pH 2, room temperature
Protocol: Crude and purified peptides were analyzed on an Agilent 1100 series liquid chromatograph (Little Falls, Del.). Runs were performed on a Zorbax 300 SB-C8 column (150×2.1 mm I.D.; 5 μm particle size, 300 Å pore size) from Agilent Technologies using linear AB gradient (1% acetonitrile/min) and a flow rate of 0.25 ml/min, where eluant A was 0.2% aqueous TFA, pH 2 and eluant B was 0.2% TFA in acetonitrile.

Pseudomonas aeruginosa = conditions: for MIC PAO 1: 37° C., 24 h, strain PAO1; for MIC GM (geometric mean of the MIC values): six P. aeruginosa strains; for MIC CP 204: strain CP204; for MIC M 2: strain M2; for MIC PA 14: strain PA14; for MIC PAK: strain PAK; for MIC WR 5: strain WR5
[2] = RP-HPLC temperature profiling (peptide self-association parameter PA); type: physicochemical; conditions: RP-HPLC temperature profiling 5-80° C., pH 2, relative to control peptide C
Protocol: Temperature profiling analyses were performed on the same column in 3° C. increments, from 5° C. to 80° C., using a linear AB gradient of 0.5% acetonitrile/min, as described previously (30, 53, 92, 93).
Peptide self-association (i.e., the ability to oligomerize/dimerize) in aqueous solution is a very important parameter for antimicrobial activity (53, 92, 93). Without wishing to be bound by any particular theory, the present inventors postulated that monomeric random-coil antimicrobial peptides are best suited to pass through the capsule and cell wall of microorganisms prior to penetration into the cytoplasmic membrane, induction of α-helical structure and disruption of membrane structure to kill target cells (93). Thus, if the self-association ability of a peptide in aqueous media is too strong (e.g., forming stable folded dimers through interaction of their non-polar faces) this could decrease the ability of the peptide to dissociate to monomer, in addition oligomerization of the peptide can prevent it from effectively passing through the capsule and cell wall to reach the membrane. The ability of the peptides in the present study to self-associate was determined by the technique of RP-HPLC temperature profiling at pH 2 (29, 30, 38). The reason pH 2 is used to determine self-association of cationic AMPs is that highly positively charged peptides are frequently not eluted from reversed-phase columns at pH 7 due to non-specific binding to negatively charged silanols on the column matrix. This is not a problem at pH 2 since the silanols are protonated (i.e., neutral) and non-specific electrostatic interactions are eliminated. At pH 2, the interactions between the peptide and the reversed-phase matrix involve ideal retention behavior, i.e., only hydrophobic interactions between the preferred binding domain (nonpolar face) of the amphipathic molecule and the hydrophobic surface of the column matrix are present (39). […] Control peptide C is a monomeric random coil peptide in both aqueous and hydrophobic media; thus, its linear decrease in peptide retention behavior with increasing temperature within the range of 5° C. to 80° C. represents only the general effects of temperature due to greater solute diffusivity and enhanced mass transfer between the stationary and mobile phase at higher temperatures (55). To allow for these general temperature effects, the data for the control peptide was subtracted from each temperature profile as shown in FIG. 2B. Thus, the peptide self-association parameter, PA, represents the maximum change in peptide retention time relative to the random coil peptide C. Note that the higher the PA value, the greater the self-association.

[3] = system: Methicillin Resistant Staphylococcus aureus (MRSA) and Staphylococcus aureus; type: cell-based
Protocol: as §1, §2
Identification of Antimicrobial Peptides for Gram-positive Bacteria. In a manner similar to testing against gram-negative bacteria, experiments were carried out to screen the 14 peptides used to identify antimicrobial peptides with significant activity against A. baumanii shown above against 20 different clinical isolates of Methicillin Resistant Staphylococcus aureus (MRSA) and Staphylococcus aureus.

[4] = Hemolytic activity against human erythrocytes (HC50 / MHC, microtiter dilution); type: cell-based; conditions: human, 1% human erythrocytes, pH 7.4
Protocol: Hemoglobin release was determined spectrophotometrically at 570 nm. The hemolytic activity was determined as the peptide concentration that caused 50% hemolysis of erythrocytes after 18 h (HC50). […] HC50 was determined by a plot of peptide concentration versus percent lysis.

Row | MIC GM (geometric mean) (Acinetobacter baumannii) | MIC (Acinetobacter baumannii; 24 h) | Hydrophobicity (retention time in RP-HPLC) [1] | MIC PAO 1 (Pseudomonas aeruginosa; Brain Heart Infusion medium) | MIC GM (geometric mean of the MIC values) (Pseudomonas aeruginosa; Brain Heart Infusion medium) | MIC CP 204 (Pseudomonas aeruginosa; Brain Heart Infusion medium) | MIC M 2 (Pseudomonas aeruginosa; Brain Heart Infusion medium) | MIC PA 14 (Pseudomonas aeruginosa; Brain Heart Infusion medium) | MIC PAK (Pseudomonas aeruginosa; Brain Heart Infusion medium) | MIC WR 5 (Pseudomonas aeruginosa; Brain Heart Infusion medium) | MIC PAO 1 (Pseudomonas aeruginosa; Mueller Hinton medium) | MIC GM (geometric mean of the MIC values) (Pseudomonas aeruginosa; Mueller Hinton medium) | MIC CP 204 (Pseudomonas aeruginosa; Mueller Hinton medium) | MIC M 2 (Pseudomonas aeruginosa; Mueller Hinton medium) | MIC PA 14 (Pseudomonas aeruginosa; Mueller Hinton medium) | MIC PAK (Pseudomonas aeruginosa; Mueller Hinton medium) | MIC WR 5 (Pseudomonas aeruginosa; Mueller Hinton medium) | PA (dimerization / self-association parameter) [2] | MIC GM (geometric mean) [3] | Structure (SMILES) | HC50 at 18 h [4]
1 | 0.7 µM (≈ 2 µg/mL) | 0.7 µM (≈ 2 µg/mL) | 98.81 min | 31.3 µg/mL (≈ 11 µM) | 35.1 µg/mL | 62.5 µg/mL (≈ 21.9 µM) | 31.3 µg/mL (≈ 11 µM) | 15.6 µg/mL (≈ 5.46 µM) | 31.3 µg/mL (≈ 11 µM) | 62.5 µg/mL (≈ 21.9 µM) | 15.6 µg/mL (≈ 5.46 µM) | 22.1 µg/mL | 31.3 µg/mL (≈ 11 µM) | 31.3 µg/mL (≈ 11 µM) | 15.6 µg/mL (≈ 5.46 µM) | 15.6 µg/mL (≈ 5.46 µM) | 31.3 µg/mL (≈ 11 µM) | 7.96 | 19.7 µM (≈ 56.3 µg/mL) | CC[C@@H](C)[C@@H](NC(=O)[C@@H](C)NC(=O)[C@@H](CO)NC(=O)[C@@H](CC(C)C)NC(=O)[C@@H](CC(C)C)NC(=O)[C@H](NC(=O)[C@@H](CCCCN)NC(=O)[C@@H](CC(C)C)NC(=O)[C@@H](C)NC(=O)[C@@H](CCCCN)NC(=O)[C@@H](CCCCN)NC(=O)[C@@H](CCCCN)NC(=O)[C@@H](C)NC(=O)[C@@H](CCCCN)NC(=O)[C@@H](CO)NC(=O)[C@@H](Cc1ccccc1)NC(=O)[C@H](NC(=O)[C@@H](CO)NC(=O)[C@@H](CC(C)C)NC(=O)[C@@H](Cc1ccccc1)NC(=O)[C@@H](CO)NC(=O)[C@@H](CO)NC(=O)[C@@H](Cc1c[nH]c2ccccc12)NC(=O)[C@@H](CO)NC(C)=O)[C@H](C)O)[C@H](C)O)C(=O)N[C@H](CO)C(=O)N[C@H](CO)C(N)=O [Peptide D17, Ac-SWSSFLSTFSKAKKKALKTLLSAISS-amide] | 62 µg/mL and 21.7 µM
2 | 0.9 µM (≈ 2.61 µg/mL) | – | 97.87 min | 10.4 µg/mL (≈ 3.59 µM) | 14.7 µg/mL | 41.7 µg/mL (≈ 14.4 µM) | 10.4 µg/mL (≈ 3.59 µM) | 10.4 µg/mL (≈ 3.59 µM) | 10.4 µg/mL (≈ 3.59 µM) | 20.8 µg/mL (≈ 7.17 µM) | 7.8 µg/mL (≈ 2.69 µM) | 9.8 µg/mL | 15.6 µg/mL (≈ 5.38 µM) | 7.8 µg/mL (≈ 2.69 µM) | 7.8 µg/mL (≈ 2.69 µM) | 7.8 µg/mL (≈ 2.69 µM) | 15.6 µg/mL (≈ 5.38 µM) | 7.21 | 17.1 µM (≈ 49.6 µg/mL) | CC[C@@H](C)[C@@H](NC(=O)[C@@H](C)NC(=O)[C@@H](CO)NC(=O)[C@@H](CC(C)C)NC(=O)[C@@H](CC(C)C)NC(=O)[C@H](NC(=O)[C@@H](CCCCN)NC(=O)[C@@H](CC(C)C)NC(=O)[C@@H](C)NC(=O)[C@@H](CCCCN)NC(=O)[C@@H](CCCCN)NC(=O)[C@@H](CCCCN)NC(=O)[C@@H](C)NC(=O)[C@@H](CCCCN)NC(=O)[C@@H](CO)NC(=O)[C@@H](Cc1ccccc1)NC(=O)[C@H](NC(=O)[C@@H](CCCCN)NC(=O)[C@@H](CC(C)C)NC(=O)[C@@H](Cc1ccccc1)NC(=O)[C@@H](CO)NC(=O)[C@@H](CO)NC(=O)[C@@H](Cc1c[nH]c2ccccc12)NC(=O)[C@@H](CO)NC(C)=O)[C@H](C)O)[C@H](C)O)C(=O)N[C@H](CO)C(=O)N[C@H](CO)C(N)=O [Peptide D18, Ac-SWSSFLKTFSKAKKKALKTLLSAISS-amide] | 55 µg/mL and 19 µM
3 | 0.8 µM (≈ 2.35 µg/mL) | – | 97.94 min | 7.8 µg/mL (≈ 2.65 µM) | 9.8 µg/mL | 15.6 µg/mL (≈ 5.31 µM) | 7.8 µg/mL (≈ 2.65 µM) | 3.9 µg/mL (≈ 1.33 µM) | 15.6 µg/mL (≈ 5.31 µM) | 15.6 µg/mL (≈ 5.31 µM) | 3.9 µg/mL (≈ 1.33 µM) | 7.8 µg/mL | 15.6 µg/mL (≈ 5.31 µM) | 15.6 µg/mL (≈ 5.31 µM) | 3.9 µg/mL (≈ 1.33 µM) | 3.9 µg/mL (≈ 1.33 µM) | 15.6 µg/mL (≈ 5.31 µM) | 7.07 | 5.3 µM (≈ 15.6 µg/mL) | CC[C@@H](C)[C@@H](NC(=O)[C@@H](C)NC(=O)[C@@H](CCCCN)NC(=O)[C@@H](CC(C)C)NC(=O)[C@@H](CC(C)C)NC(=O)[C@H](NC(=O)[C@@H](CCCCN)NC(=O)[C@@H](CC(C)C)NC(=O)[C@@H](C)NC(=O)[C@@H](CCCCN)NC(=O)[C@@H](CCCCN)NC(=O)[C@@H](CCCCN)NC(=O)[C@@H](C)NC(=O)[C@@H](CCCCN)NC(=O)[C@@H](CO)NC(=O)[C@@H](Cc1ccccc1)NC(=O)[C@H](NC(=O)[C@@H](CCCCN)NC(=O)[C@@H](CC(C)C)NC(=O)[C@@H](Cc1ccccc1)NC(=O)[C@@H](CO)NC(=O)[C@@H](CO)NC(=O)[C@@H](Cc1c[nH]c2ccccc12)NC(=O)[C@@H](CO)NC(C)=O)[C@H](C)O)[C@H](C)O)C(=O)N[C@H](CO)C(=O)N[C@H](CO)C(N)=O [Peptide D19, Ac-SWSSFLKTFSKAKKKALKTLLKAISS-amide] | 36 µg/mL and 12.2 µM
